Data on 5 compounds can be found in ChEMBL document CHEMBL3352708, “Discovery of oxazole and triazole derivatives as potent and selective S1P(1) agonists through pharmacophore-guided design” (Eur J Med Chem, 2014).

The species entered for one data set is Rattus norvegicus.
Test: not given
Particulars: in vivo, po, 3 mg/kg.
Compound `CCCCCCCCc1ccc(CCC(N)(CO)COP(=O)(O)O)cc1` (stereo not drawn) showed a t1/2 of 25.2 h.

As to `CCCCCCCCc1ccc(CCC(N)(CO)CO)cc1` [FINGOLIMOD], the t1/2 worked out at 18.9 h.

System in another data set: not listed separately
Put plainly: in vivo. Particulars: Sprague-Dawley, rat, po, 3 mg/kg.
Regarding `CCCCCCCCc1ccc(CCC(N)(CO)COP(=O)(O)O)cc1` (stereo not drawn), the peak concentration (Cmax) turned out to be 0.385 µg/mL.

The compound `COc1ccc(-c2nc(-c3ccc(CCC(N)(CO)CO)cc3)co2)cc1.Cl` returned a Cmax of 0.00951 µg/mL.

`Cl.NC(CO)(CO)CCc1ccc(-c2coc(-c3ccc(Cl)cc3)n2)cc1` had a maximum concentration (Cmax) of 0.0285 µg/mL.

As to `Cl.NC(CO)(CO)CCc1ccc(-c2coc(Cc3ccc(Cl)cc3)n2)cc1`, the maximum concentration (Cmax) came out at 0.109 µg/mL.

On to `CCCCCCCCc1ccc(CCC(N)(CO)CO)cc1` [FINGOLIMOD], for which the peak level (Cmax) was 0.0132 µg/mL.

System in another data set: not listed separately
Put plainly: in vivo. Particulars: Sprague-Dawley, rat, po, 3 mg/kg. This is another data set of the same source.
For `COc1ccc(-c2nc(-c3ccc(CCC(N)(CO)CO)cc3)co2)cc1.Cl`, the apparent clearance (CL/F) is 41.5 L/h/kg.

`Cl.NC(CO)(CO)CCc1ccc(-c2coc(-c3ccc(Cl)cc3)n2)cc1` showed a CL/F of 2.2 L/h/kg.

`Cl.NC(CO)(CO)CCc1ccc(-c2coc(Cc3ccc(Cl)cc3)n2)cc1` had a CL/F of 1.5 L/h/kg.

System in a further data set: not listed separately
The data set can be described thus: in vivo. Conditions: Sprague-Dawley, rat, po, 3 mg/kg. This is another data set of the same source.
Take `COc1ccc(-c2nc(-c3ccc(CCC(N)(CO)CO)cc3)co2)cc1.Cl`: the half-life is 5.2 h.

The compound `Cl.NC(CO)(CO)CCc1ccc(-c2coc(-c3ccc(Cl)cc3)n2)cc1` showed a half-life of 18.8 h.

Consider `Cl.NC(CO)(CO)CCc1ccc(-c2coc(Cc3ccc(Cl)cc3)n2)cc1`, for which the half-life is 21.1 h.

The species named for a further data set is Rattus norvegicus.
Test: not given
Particulars: in vivo, po, 3 mg/kg. This is another data set of the same source.
`CCCCCCCCc1ccc(CCC(N)(CO)COP(=O)(O)O)cc1` (stereo not drawn): the Vss/F was 17.2 L/kg.

As to `CCCCCCCCc1ccc(CCC(N)(CO)CO)cc1` [FINGOLIMOD], the Vss/F was 208 L/kg.

System in another data set: not listed separately
Put plainly: in vivo. Conditions: Sprague-Dawley, rat, po, 3 mg/kg. This is another data set of the same source.
For the compound `CCCCCCCCc1ccc(CCC(N)(CO)COP(=O)(O)O)cc1` (stereo not drawn), the time of peak concentration (Tmax) is 6 h.

In the case of `COc1ccc(-c2nc(-c3ccc(CCC(N)(CO)CO)cc3)co2)cc1.Cl`, the time to peak (Tmax) worked out at 4.7 h.

With `Cl.NC(CO)(CO)CCc1ccc(-c2coc(-c3ccc(Cl)cc3)n2)cc1`, the Tmax is 6.7 h.

As to `Cl.NC(CO)(CO)CCc1ccc(-c2coc(Cc3ccc(Cl)cc3)n2)cc1`, the Tmax was determined as 4 h.

`CCCCCCCCc1ccc(CCC(N)(CO)CO)cc1` [FINGOLIMOD]: the time of peak concentration (Tmax) came out at 8.4 h.

The species named for another data set is Rattus norvegicus.
Test: not given
Conditions: in vivo, po, 3 mg/kg. The source holds these as a separate data set.
On to `CCCCCCCCc1ccc(CCC(N)(CO)COP(=O)(O)O)cc1` (stereo not drawn), for which the AUCt is 4.91 µg·h/mL.

`CCCCCCCCc1ccc(CCC(N)(CO)CO)cc1` [FINGOLIMOD] registered an AUCt of 0.319 µg·h/mL.

System in the next data set: not listed separately
Put plainly: in vivo. Conditions: Sprague-Dawley, rat, po, 3 mg/kg. The source holds these as a separate data set.
As to `COc1ccc(-c2nc(-c3ccc(CCC(N)(CO)CO)cc3)co2)cc1.Cl`, the Vd/F is 300 L/kg.

For the compound `Cl.NC(CO)(CO)CCc1ccc(-c2coc(-c3ccc(Cl)cc3)n2)cc1`, the Vd/F turned out to be 60 L/kg.

For the compound `Cl.NC(CO)(CO)CCc1ccc(-c2coc(Cc3ccc(Cl)cc3)n2)cc1`, the Vd/F came out at 44.1 L/kg.

System in the next data set: not listed separately
Put plainly: in vivo. Particulars: Sprague-Dawley, rat, plasma, po, 3 mg/kg.
Compound `COc1ccc(-c2nc(-c3ccc(CCC(N)(CO)CO)cc3)co2)cc1.Cl` returned an area under the curve AUC(0-t) of 0.0734 µg·h/mL.

Compound `Cl.NC(CO)(CO)CCc1ccc(-c2coc(-c3ccc(Cl)cc3)n2)cc1` returned an AUC(0-t) of 0.9 µg·h/mL.

Regarding `Cl.NC(CO)(CO)CCc1ccc(-c2coc(Cc3ccc(Cl)cc3)n2)cc1`, the AUC(0-t) stood at 1.7 µg·h/mL.

What is called Cmax is the maximum level reached in the sampled fluid or tissue. One may read the CL/F as clearance divided by bioavailability, as obtained after extravascular dosing. Broadly, the half-life is the time needed for the level to fall by half in the phase considered. For orientation: Tmax means the time at which the peak concentration occurs. In general, Vd/F refers to the apparent distribution volume after extravascular dosing. What is called AUC(0-t) is exposure summed from dosing to a finite time, without extrapolation to infinity. A higher AUC(0-t) goes with more exposure.
